ChEMBL document CHEMBL4765389, “Antimicrobial and anti-inflammatory activities of short dodecapeptides derived from duck cathelicidin: Plausible mechanism of bactericidal action and endotoxin neutralization” (Eur J Med Chem, 2020)
Active and inactive are the calls of the source. The rule behind the calls is not given here.

Experiments:
RAW264.7 [1] = assay: Antiinflammatory activity against mouse RAW264.7 cells assessed as reduction in LPS-induced TNFalpha mRNA expression at 10 uM incubated for 3 hrs by qRT-PCR analysis; type: functional, cell-based
Staphylococcus aureus [2] = assay: Antibacterial activity against methicillin-resistant Staphylococcus aureus CCARM 3090 assessed as fractional inhibitory concentration incubated for 24 hrs in presence of chloramphenicol by CLSI based broth dilution method; type: functional
Escherichia coli [3] = assay: Antibacterial activity against Escherichia coli KCTC 1682 assessed as reduction in bacterial growth incubated for 24 hrs in presence of 4.5 mM KCl by CLSI based broth dilution method; type: functional; details: read-out: MIC100
[4] = Antibacterial activity against multidrug-resistant Pseudomonas aeruginosa CCARM 2095 assessed as fractional inhibitory concentration incubated for 24 hrs in presence of oxacillin by CLSI based broth dilution method; type: functional
Staphylococcus aureus [5] = assay: Antibacterial activity against Staphylococcus aureus KCTC 1621 assessed as reduction in bacterial growth incubated for 24 hrs in presence of 20 % serum by CLSI based broth dilution method; type: functional; details: read-out: MIC100
[6] = Antibacterial activity against multidrug-resistant Pseudomonas aeruginosa CCARM 2095 assessed as fractional inhibitory concentration incubated for 24 hrs in presence of ciprofloxacin by CLSI based broth dilution method; type: functional
Cell membrane [7] = assay: Induction of cell membrane permeability in Staphylococcus aureus KCTC 1621 assessed as cytoplasmic membrane depolarization at 2 times MIC by DiSC3-5 dye based spectrofluorometry; type: subcellular
Cell membrane [8] = assay: Induction of cell membrane permeability in Escherichia coli KCTC 1682 assessed as cytoplasmic membrane […] fluorescent signals at 2 times MIC measured after 1 hr by propidium iodide dye based flow cytometry analysis (reference value: 9.8 %); type: subcellular
Staphylococcus aureus [9] = assay: Antibacterial activity against Staphylococcus aureus KCTC 1621 assessed as reduction in bacterial growth incubated for 24 hrs in presence of 4 uM FeCl3 by CLSI based broth dilution method; type: functional; details: read-out: MIC100
Escherichia coli [10] = assay: Antibacterial activity against Escherichia coli KCTC 1682 assessed as reduction in bacterial growth incubated for 24 hrs in presence of 2.5 mM CaCl2 by CLSI based broth dilution method; type: functional; details: read-out: MIC100
RAW264.7 [11] = assay: Antiinflammatory activity against mouse RAW264.7 cells assessed as reduction in LPS-induced iNOS mRNA expression at 5 uM incubated for 6 hrs by qRT-PCR analysis; type: functional, cell-based
Staphylococcus aureus [12] = assay: Antibacterial activity against methicillin-resistant Staphylococcus aureus CCARM 3090 assessed as reduction in bacterial growth incubated for 24 hrs in presence of oxacillin by CLSI based broth dilution method; type: functional; details: read-out: MIC100
[13] = Antibacterial activity against multidrug-resistant Pseudomonas aeruginosa CCARM 2095 assessed as reduction in bacterial growth incubated for 24 hrs in presence of oxacillin by CLSI based broth dilution method; type: functional; details: read-out: MIC100
Lipopolysaccharide (LPS) [14] = assay: Inhibition of Escherichia coli O111:B4 LPS aggregation assessed as increase in FITC-LPS dissociation by spectrofluorometry
RAW264.7 [15] = assay: Antiinflammatory activity in mouse RAW264.7 cells assessed as suppression of LPS binding by measuring LPS-FITC aggregation at 10 uM pretreated with LPS for 1 hr followed by compound addition and measured after 30 mins by flowcytometry analysis (reference value: 67.93 %); type: functional; details: 0.5 h
Cell membrane [16] = assay: Induction of cell membrane permeability in Escherichia coli KCTC 1682 assessed as […] at 2 times MIC by ONPG dye based spectrophotometry; type: subcellular
Escherichia coli [17] = assay: Antibacterial activity against Escherichia coli KCTC 1682 assessed as reduction in bacterial growth incubated for 24 hrs in presence of 4 uM FeCl3 by CLSI based broth dilution method; type: functional; details: read-out: MIC100
Staphylococcus aureus [18] = assay: Antibacterial activity against Staphylococcus aureus KCTC 1621 assessed as reduction in bacterial growth incubated for 24 hrs in presence of 4.5 mM KCl by CLSI based broth dilution method; type: functional; details: read-out: MIC100
[19] = Antibacterial activity against multidrug-resistant Pseudomonas aeruginosa CCARM 2095 assessed as fractional inhibitory concentration index incubated for 24 hrs in presence of oxacillin by CLSI based broth dilution method; type: functional
[20] = Antibacterial activity against multidrug-resistant Pseudomonas aeruginosa CCARM 2095 assessed as reduction in bacterial growth incubated for 24 hrs in presence of chloramphenicol by CLSI based broth dilution method; type: functional; details: read-out: MIC100
Escherichia coli [21] = assay: Antibacterial activity against Escherichia coli KCTC 1682 assessed as reduction in bacterial growth incubated for 24 hrs in presence of 1 mM MgCl2 by CLSI based broth dilution method; type: functional; details: read-out: MIC100
Staphylococcus aureus [22] = assay: Antibacterial activity against methicillin-resistant Staphylococcus aureus CCARM 3090 assessed as fractional inhibitory concentration index incubated for 24 hrs in presence of oxacillin by CLSI based broth dilution method; type: functional
Staphylococcus aureus [23] = assay: Antibacterial activity against methicillin-resistant Staphylococcus aureus CCARM 3090 assessed as reduction in bacterial growth incubated for 24 hrs in presence of ciprofloxacin by CLSI based broth dilution method; type: functional; details: read-out: MIC100
Lipopolysaccharide (LPS) [24] = assay: Displacement of BODIPY-TR cadaverine from Escherichia coli O111:B4 LPS at 10 uM measured for 100 sec by spectrofluorometry relative to control
Escherichia coli [25] = assay: Antibacterial activity against Escherichia coli KCTC 1682 assessed as reduction in bacterial growth incubated for 24 hrs in presence of 6 uM NH4Cl by CLSI based broth dilution method; type: functional; details: read-out: MIC100
Staphylococcus aureus [26] = assay: Antibacterial activity against Staphylococcus aureus KCTC 1621 assessed as reduction in bacterial growth incubated for 24 hrs in presence of 2.5 mM CaCl2 by CLSI based broth dilution method; type: functional; details: read-out: MIC100
Staphylococcus aureus [27] = assay: Antibacterial activity against Staphylococcus aureus KCTC 1621 assessed as reduction in bacterial growth incubated for 24 hrs in presence of 6 uM NH4Cl by CLSI based broth dilution method; type: functional; details: read-out: MIC100
Staphylococcus aureus [28] = assay: Antibacterial activity against methicillin-resistant Staphylococcus aureus CCARM 3090 assessed as fractional inhibitory concentration index incubated for 24 hrs in presence of ciprofloxacin by CLSI based broth dilution method; type: functional
Staphylococcus aureus [29] = assay: Antibacterial activity against Staphylococcus aureus KCTC 1621 assessed as reduction in bacterial growth incubated for 24 hrs in presence of 1 mM MgCl2 by CLSI based broth dilution method; type: functional; details: read-out: MIC100
[30] = Antibacterial activity against multidrug-resistant Pseudomonas aeruginosa CCARM 2095 assessed as fractional inhibitory concentration index incubated for 24 hrs in presence of chloramphenicol by CLSI based broth dilution method; type: functional
Staphylococcus aureus [31] = assay: Antibacterial activity against methicillin-resistant Staphylococcus aureus CCARM 3090 assessed as fractional inhibitory concentration incubated for 24 hrs in presence of ciprofloxacin by CLSI based broth dilution method; type: functional
Staphylococcus aureus [32] = assay: Antibacterial activity against Staphylococcus aureus KCTC 1621 assessed as reduction in bacterial growth incubated for 24 hrs in presence of 150 mM NaCl by CLSI based broth dilution method; type: functional; details: read-out: MIC100
Cell membrane [33] = assay: Induction of cell membrane permeability in Staphylococcus aureus KCTC 1621 assessed as cytoplasmic membrane depolarization at 2 times MIC by SYTOX dye based fluorescence assay; type: subcellular
[34] = Antibacterial activity against multidrug-resistant Pseudomonas aeruginosa CCARM 2095 assessed as reduction in bacterial growth incubated for 24 hrs in presence of ciprofloxacin by CLSI based broth dilution method; type: functional; details: read-out: MIC100
Escherichia coli [35] = assay: Antibacterial activity against Escherichia coli KCTC 1682 assessed as reduction in bacterial growth incubated for 24 hrs in presence of 20 % serum by CLSI based broth dilution method; type: functional; details: read-out: MIC100
[36] = Antibacterial activity against multidrug-resistant Pseudomonas aeruginosa CCARM 2095 assessed as fractional inhibitory concentration index incubated for 24 hrs in presence of ciprofloxacin by CLSI based broth dilution method; type: functional
Staphylococcus aureus [37] = assay: Antibacterial activity against methicillin-resistant Staphylococcus aureus CCARM 3090 assessed as fractional inhibitory concentration incubated for 24 hrs in presence of oxacillin by CLSI based broth dilution method; type: functional
[38] = Antibacterial activity against multidrug-resistant Pseudomonas aeruginosa CCARM 2095 assessed as fractional inhibitory concentration incubated for 24 hrs in presence of chloramphenicol by CLSI based broth dilution method; type: functional
RAW264.7 [39] = assay: Antiinflammatory activity in mouse RAW264.7 cells assessed as neutralization of LPS binding by measuring LPS-FITC aggregation at 10 uM pretreated with LPS for 1 hr followed by compound addition and measured after 1 hr by flowcytometry analysis (reference value: 48.12 %); type: functional
Staphylococcus aureus [40] = assay: Antibacterial activity against methicillin-resistant Staphylococcus aureus CCARM 3090 assessed as fractional inhibitory concentration index incubated for 24 hrs in presence of chloramphenicol by CLSI based broth dilution method; type: functional
Escherichia coli [41] = assay: Antibacterial activity against Escherichia coli KCTC 1682 assessed as reduction in bacterial growth incubated for 24 hrs in presence of 150 mM NaCl by CLSI based broth dilution method; type: functional; details: read-out: MIC100
Staphylococcus aureus [42] = assay: Antibacterial activity against methicillin-resistant Staphylococcus aureus CCARM 3090 assessed as reduction in bacterial growth incubated for 24 hrs in presence of chloramphenicol by CLSI based broth dilution method; type: functional; details: read-out: MIC100

CC[C@H](C)[C@H](NC(=O)[C@H](CCCCN)NC(=O)[C@H](CCC(=O)O)NC(=O)[C@H](CCCCN)NC(=O)[C@H](CO)NC(=O)[C@H](CCCCN)NC(=O)[C@H](CCCNC(=N)N)NC(=O)[C@H](Cc1ccccc1)NC(=O)[C@H](Cc1ccccc1)NC(=O)[C@H](CC(=O)O)NC(=O)CNC(=O)[C@H](CC(C)C)NC(=O)[C@@H](N)CC(C)C)C(=O)NCC(=O)N[C@@H](CCCCN)C(=O)N[C@@H](CCC(=O)O)C(=O)N[C@@H](Cc1ccccc1)C(=O)N[C@@H](CCCCN)C(=O)N[C@@H](CCCNC(=N)N)C(=O)N[C@H](C(=O)N[C@H](C(=O)N[C@@H](CCC(N)=O)C(=O)N[C@@H](CCCNC(=N)N)C(=O)N[C@H](C(=O)N[C@@H](CCCCN)C(=O)N[C@@H](CC(=O)O)C(=O)N[C@@H](Cc1ccccc1)C(=O)N[C@@H](CC(C)C)C(=O)N[C@@H](CCCNC(=N)N)C(=O)N[C@@H](CC(N)=O)C(=O)N[C@@H](CC(C)C)C(=O)N[C@H](C(=O)N1CCC[C@H]1C(=O)N[C@@H](CCCNC(=N)N)C(=O)N[C@H](C(=O)N[C@@H](CCC(=O)O)C(=O)N[C@@H](CO)C(=O)O)[C@@H](C)O)C(C)C)[C@@H](C)CC)C(C)C)[C@@H](C)CC [CATHELICIDIN]
inhibition (RAW264.7 [1]): Active
FIC (Staphylococcus aureus [2]): 0.5
MIC (Escherichia coli [3]): 8 µM
FIC [4]: 0.25
MIC (Staphylococcus aureus [5]): 8 µM
FIC [6]: 0.25
Activity (Cell membrane [7]): Active
Activity (Cell membrane [8]): 70.1%
MIC (Staphylococcus aureus [9]): 16 µM
MIC (Escherichia coli [10]): 16 µM
inhibition (RAW264.7 [11]): Active
MIC (Staphylococcus aureus [12]): 128 µM
MIC [13]: 128 µM
inhibition (Lipopolysaccharide (LPS) [14]): Dose-dependent effect
Activity (RAW264.7 [15]): 25.44%
Activity (Cell membrane [16]): Active
MIC (Escherichia coli [17]): 16 µM
MIC (Staphylococcus aureus [18]): 8 µM
fractional inhibitory concentration index (FICI) [19]: 0.75
MIC [20]: 512 µM
MIC (Escherichia coli [21]): 16 µM
fractional inhibitory concentration index (FICI) (Staphylococcus aureus [22]): 0.75
MIC (Staphylococcus aureus [23]): 256 µM
Activity (Lipopolysaccharide (LPS) [24]): 68%
MIC (Escherichia coli [25]): 8 µM
MIC (Staphylococcus aureus [26]): 16 µM
MIC (Staphylococcus aureus [27]): 8 µM
fractional inhibitory concentration index (FICI) (Staphylococcus aureus [28]): 1
MIC (Staphylococcus aureus [29]): 8 µM
fractional inhibitory concentration index (FICI) [30]: 1
FIC (Staphylococcus aureus [31]): 0.5
MIC (Staphylococcus aureus [32]): 16 µM
Activity (Cell membrane [33]): Active
MIC [34]: 128 µM
MIC (Escherichia coli [35]): 8 µM
fractional inhibitory concentration index (FICI) [36]: 1.25
FIC (Staphylococcus aureus [37]): 0.25
FIC [38]: 0.5
Activity (RAW264.7 [39]): 13.98%
fractional inhibitory concentration index (FICI) (Staphylococcus aureus [40]): 0.75
MIC (Escherichia coli [41]): 16 µM
MIC (Staphylococcus aureus [42]): 64 µM
